Assay results taken from patent US9526250B2, “Methods for delaying maturity of crops” (Plant Protectants, LLC, priority 2009, dated 2016).

Key:
[1] = test system: oranges (Navels); assay: Fruit dipping of oranges at color break, peel color development (example 2); format: in vivo, navel oranges; conditions: 2 min immersion at 50° F., incubated at 15° C., chart of FIG. 1 (1-8), initial color 5.5
Text: (§1) The invention is further illustrated by the following non-limiting examples. It is to be appreciated that, although each of the exemplary experiments used potassium phosphite, that other salts of phosphorous acid, including without limitation, ammonium, sodium, and/or calcium salts, as well as phosphorous acid itself may also have been used. For examples 1 and 2 below, assessment of citrus fruit peel color was made using the following color grading charts (FIG. 1 for Navels; FIG. 2 for Lemons) in addition to the Dictionary of Color by Maerz and Paul, First Edition (1930). All experiments were conducted in solutions at approximately pH 6, although pH ranges from between about 3 and about 9 are acceptable.
Five different treatments (A-E below) were made. There were four replications for each of the five treatments, with each replicate comprising six fruit pieces. Thus, each treatment was applied to 24 fruit pieces. The fruit treated in this example were oranges at the color break stage, the fruit being predominantly green with some development of orange color (initial color 5.5). […]
(§2) After the treatments were applied and left to dry for 10 minutes, all treatments were recorded for peel color using FIG. 1 above and the Dictionary of Color, and rated for color development and photographed. The fruit was placed in humid incubators at 15° C. and monitored weekly for color development. […]

[2] = test system: navel orange tree (variety Cara Cara); assay: Field spray of navel orange trees in situ, fruit color development (example 3); format: in vivo; conditions: Navels on trees, pH about 5-6, assessed approximately 30 days later, chart of FIG. 1
Text: Five different treatments (T1-T5 below) were made. There were four replications for each of the five treatments, with each replicate comprising one navel orange tree (variety Cara Cara) in situ. Thus, each treatment was applied to 4 different trees. Treatments were all made using a motorized high volume agricultural sprayer and an application volume equivalent to 5000 L/ha (liters/hectare), or approximately 530 gallons/acre. This is approximately equivalent to 12.5 L (3.3 gal)/tree. The trees were sprayed during early color break (late October/early November) with a wetting agent added at 0.01% (v/v).
Treatments were as follows: • T1. Untreated trees=control. • T2. Water solution containing gibberellic acid at 16 ppm. • T3. Water solution containing potassium phosphite (expressed as equivalent amount of phosphorous acid) sprayed at 600 ppm. • T4. A tank water mixture of potassium phosphite (expressed as equivalent amount of phosphorous acid) sprayed at 300 ppm plus gibberellic acid at 16 ppm • T5. […]
The spray tank pH for all the treatments T2-T5 were adjusted with citric acid to a pH of between about 5 and about 6 (in accordance with the manufacturers instructions for gibberellic acid usage), and a small amount of a non ionic wetter added to the tank (0.01% v/v). […] The fruit on the trees were assessed for color development approximately 30 days later, during December. […]

[3] = test system: green lemons; assay: Fruit dipping of green lemons, peel color development (example 1); format: in vivo; conditions: 2 min immersion at 50° F., incubated at 15° C., chart of FIG. 2 (1-8), initial color approx 5.5
Text: as §1
Five different treatments (A-E below) were made. There were four replications for each of the five treatments, with each replicate comprising six fruit pieces. Thus, each treatment was applied to 24 fruit pieces. […]
as §2, with “FIG. 2” for “FIG. 1”

[4] = test system: firm green tomatoes; assay: Fruit dipping of firm green tomatoes, peel color development (example 4); format: in vivo; conditions: 2 min immersion at 75° F., incubated at 30° C., USDA chart of FIG. 5, initial 3.5
Text: For example 4 below, assessment of the tomato peel color was made using the USDA color grading chart (FIG. 5) in addition to the Dictionary of Color.
The color grading chart (FIG. 5) is a reproduction of the “Tomato Color Standards USDA Visual Aid TM-L-1” which consists of a chart containing twelve color photographs illustrating certain color classification requirements. The official USDA chart is incorporated herein by this reference. Table 6 below sets forth approximate cross-references to the Dictionary of Color for the 12 colors of the USDA chart:
In example 4, five different treatments (A-E below) were made. There were four replications for each of the five treatments, with each replicate comprising six fruit pieces. Thus, each treatment was applied to 24 fruit pieces. The fruit treated in this example were firm green tomatoes according to the chart above was 3.5 (initial color 11-C-22) at the onset of color break. Immersion temperatures were approximately 75° F. (24° C.). […]
After the treatments were applied and left to dry for 10 minutes, all treatments were recorded for peel color using the Dictionary of Color and also the USDA Tomato Color Standards Chart (FIG. 5 herein), and rated for color development and photographed. […] (86° F.) and monitored weekly for color development. […]

[5] = gibberellic acid 100 ppm in water

| Molecule | Mean Color Rating [1, 5] [b] | Mean Color Rating ([2]; gibberellic acid 16 ppm sprayed at 5000 L/ha) [b] | Mean Color Rating [3, 5] [b] | Mean Color Rating ([4]; gibberellic acid 100 ppm) [b] | Mean Color Rating ([1]; 2% (w/w) potassium phosphite) [bc] | Mean Color Rating ([2]; potassium phosphite 600 ppm (as phosphorous acid) sprayed at 5000 L/ha) [bc] | Mean Color Rating ([3]; 2% (w/w) potassium phosphite) [c] | Mean Color Rating ([4]; 2% (w/w) potassium phosphite) [b] |
| --- | --- | --- | --- | --- | --- | --- | --- | --- |
| C=C1C[C@]23C[C@@]1(O)CC[C@H]2[C@@]12C=C[C@H](O)[C@@](C)(C(=O)O1)[C@H]2[C@@H]3C(=O)O [Gibberellic acid (GA), gibberellic acid] | 3.2 | 3.2 | 3 | 4.6 |  |  |  |  |
| potassium phosphite |  |  |  |  | 3.5 | 3.5 | 3.6 | 4.8 |
